The results in this text go back to ChEMBL document CHEMBL3217469, “Redesigning the designer drug ecstasy: non-psychoactive MDMA analogues exhibiting Burkitt's lymphoma cytotoxicity” (Medchemcomm, 2010).

Data set [1] is described as follows: Cytotoxicity against human L3055 cells assessed as reduction in [3H]thymidine incorporation after 24 hrs by propidium iodide staining-based assay. Type of data set: functional, cell-based.
Another data set has as its system SH-SY5Y. As to the kind of experiment: Neurotoxicity against human SH-SY5Y cells at 1 to 600 uM after 24 hrs by Alamar Blue assay. Format: toxicity, cell-based.
Data set [2] can be described thus: Ratio of MDMA IC50 to compound IC50 for human L3055 cells. Type of data set: functional.
The target in data set [3] is T1, 5-hydroxytryptamine receptor 2C (Rattus norvegicus, UniProt P08909).
T1 sequence (P08909 whole entry): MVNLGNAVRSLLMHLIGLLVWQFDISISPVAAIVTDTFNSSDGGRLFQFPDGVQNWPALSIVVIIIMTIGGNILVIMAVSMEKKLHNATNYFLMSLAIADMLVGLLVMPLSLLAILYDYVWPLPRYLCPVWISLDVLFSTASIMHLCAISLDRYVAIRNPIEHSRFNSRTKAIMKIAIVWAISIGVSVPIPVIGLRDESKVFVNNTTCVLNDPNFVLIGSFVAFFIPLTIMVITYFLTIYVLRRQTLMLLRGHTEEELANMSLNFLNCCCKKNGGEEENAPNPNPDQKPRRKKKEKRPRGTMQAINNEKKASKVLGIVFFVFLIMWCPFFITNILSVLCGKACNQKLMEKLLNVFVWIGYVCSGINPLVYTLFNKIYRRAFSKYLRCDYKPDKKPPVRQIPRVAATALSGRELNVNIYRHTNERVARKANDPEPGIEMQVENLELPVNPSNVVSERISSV
As to the kind of experiment: Displacement of [3H]mesulergine from 5-HT2C receptor in Sprague-Dawley rat whole brain after 60 mins by scintillation counting analysis.

For data set [4], the target named is 5-hydroxytryptamine receptor 2A (Rattus norvegicus, UniProt P14842). Briefly: Displacement of [3H]-ketanserin from 5-HT2A receptor in Sprague-Dawley rat cerebral cortex after 45 mins by scintillation counting analysis. Type of data set: tissue-based.
Data set [5] deals with T2, 5-hydroxytryptamine receptor 1A (Rattus norvegicus, UniProt P19327).
T2 sequence (P19327 whole entry): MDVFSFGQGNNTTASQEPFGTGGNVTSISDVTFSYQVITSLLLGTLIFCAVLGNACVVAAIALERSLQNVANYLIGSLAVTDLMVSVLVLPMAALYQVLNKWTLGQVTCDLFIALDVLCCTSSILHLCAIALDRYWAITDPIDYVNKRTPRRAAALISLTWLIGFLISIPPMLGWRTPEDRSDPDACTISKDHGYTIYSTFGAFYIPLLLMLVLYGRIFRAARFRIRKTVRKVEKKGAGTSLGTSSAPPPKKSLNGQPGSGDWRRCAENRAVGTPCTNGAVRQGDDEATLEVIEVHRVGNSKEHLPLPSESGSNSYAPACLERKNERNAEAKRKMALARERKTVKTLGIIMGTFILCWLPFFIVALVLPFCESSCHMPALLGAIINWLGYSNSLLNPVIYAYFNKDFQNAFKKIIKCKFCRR
As to the kind of experiment: Displacement of [3H]WAY100635 from 5-HT1A receptor in Sprague-Dawley rat cerebral cortex after 60 mins by scintillation counting analysis. Type of data set: tissue-based.

The target of data set [6] is Sodium-dependent serotonin transporter (Rattus norvegicus, UniProt P31652). As to the kind of experiment: Displacement of [3H]citalopram from SERT in Sprague-Dawley rat whole brain after 60 mins by scintillation counting analysis.
In another data set the target is Transporter (Rattus norvegicus, UniProt Q63380). Briefly: Displacement of [3H]nisoxetine from NET in Sprague-Dawley rat cerebellum after 60 mins by scintillation counting analysis.
The next data set has as its target Serotonin 1B/1D receptor (Rattus norvegicus, UniProt P28564+P28565). Briefly: Displacement of [3H]GR125743 from 5-HT1B/1D receptor in Sprague-Dawley rat whole brain after 60 mins by scintillation counting analysis.
The subject of data set [7] is Rattus norvegicus. As to the kind of experiment: Induction of psychotic activity in Wistar rat assessed as reduction in prepulse inhibition of acoustic startle reflex at 4.4 to 88 umol/kg. Format: organism-based. The settings on record: in vivo.
For data set [8], the target named is Sodium-dependent dopamine transporter (Rattus norvegicus, UniProt P23977). As to the kind of experiment: Displacement of [3H]GBR12935 from DAT in Sprague-Dawley rat striatum after 45 mins by scintillation counting analysis.
The species named for data set [9] is Rattus norvegicus. As to the kind of experiment: Induction of psychotic activity in Wistar rat assessed as reduction in prepulse inhibition of acoustic startle reflex. Type of data set: organism-based. The settings on record: in vivo.

Some results are limits rather than exact numbers.

Sodium-dependent serotonin transporter, sequence (P31652 whole entry): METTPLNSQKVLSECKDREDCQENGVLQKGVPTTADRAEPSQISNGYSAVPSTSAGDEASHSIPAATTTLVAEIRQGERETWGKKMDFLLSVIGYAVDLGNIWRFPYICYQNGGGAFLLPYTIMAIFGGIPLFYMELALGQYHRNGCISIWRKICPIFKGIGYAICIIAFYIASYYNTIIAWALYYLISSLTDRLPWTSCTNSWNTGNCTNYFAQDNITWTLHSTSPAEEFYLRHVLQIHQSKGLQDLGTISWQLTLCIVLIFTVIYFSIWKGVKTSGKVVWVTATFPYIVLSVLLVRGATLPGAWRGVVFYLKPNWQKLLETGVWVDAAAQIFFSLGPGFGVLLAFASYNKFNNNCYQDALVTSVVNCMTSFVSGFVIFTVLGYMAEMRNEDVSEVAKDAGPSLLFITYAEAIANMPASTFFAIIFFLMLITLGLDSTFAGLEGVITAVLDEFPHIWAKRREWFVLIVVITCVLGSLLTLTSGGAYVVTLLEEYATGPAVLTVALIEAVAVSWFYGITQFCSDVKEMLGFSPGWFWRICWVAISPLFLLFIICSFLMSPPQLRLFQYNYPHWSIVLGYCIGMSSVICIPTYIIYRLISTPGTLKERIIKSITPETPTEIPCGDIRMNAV
Transporter, sequence (Q63380 whole entry): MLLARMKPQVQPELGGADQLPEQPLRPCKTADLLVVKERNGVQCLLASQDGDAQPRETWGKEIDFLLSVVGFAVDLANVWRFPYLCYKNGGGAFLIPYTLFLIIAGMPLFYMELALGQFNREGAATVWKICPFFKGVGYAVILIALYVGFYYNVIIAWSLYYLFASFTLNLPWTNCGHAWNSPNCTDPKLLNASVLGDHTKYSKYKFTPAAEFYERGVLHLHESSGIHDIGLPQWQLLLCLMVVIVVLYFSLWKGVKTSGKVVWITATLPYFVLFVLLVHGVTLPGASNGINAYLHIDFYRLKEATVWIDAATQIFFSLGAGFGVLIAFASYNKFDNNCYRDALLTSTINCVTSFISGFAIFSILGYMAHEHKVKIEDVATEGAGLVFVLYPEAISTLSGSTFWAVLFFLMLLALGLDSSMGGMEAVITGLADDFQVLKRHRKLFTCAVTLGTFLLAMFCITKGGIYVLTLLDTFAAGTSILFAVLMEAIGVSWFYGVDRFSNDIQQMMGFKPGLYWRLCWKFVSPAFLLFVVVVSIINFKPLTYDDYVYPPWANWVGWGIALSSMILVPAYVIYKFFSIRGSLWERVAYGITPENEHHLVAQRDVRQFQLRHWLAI
Sodium-dependent dopamine transporter, sequence (P23977 whole entry): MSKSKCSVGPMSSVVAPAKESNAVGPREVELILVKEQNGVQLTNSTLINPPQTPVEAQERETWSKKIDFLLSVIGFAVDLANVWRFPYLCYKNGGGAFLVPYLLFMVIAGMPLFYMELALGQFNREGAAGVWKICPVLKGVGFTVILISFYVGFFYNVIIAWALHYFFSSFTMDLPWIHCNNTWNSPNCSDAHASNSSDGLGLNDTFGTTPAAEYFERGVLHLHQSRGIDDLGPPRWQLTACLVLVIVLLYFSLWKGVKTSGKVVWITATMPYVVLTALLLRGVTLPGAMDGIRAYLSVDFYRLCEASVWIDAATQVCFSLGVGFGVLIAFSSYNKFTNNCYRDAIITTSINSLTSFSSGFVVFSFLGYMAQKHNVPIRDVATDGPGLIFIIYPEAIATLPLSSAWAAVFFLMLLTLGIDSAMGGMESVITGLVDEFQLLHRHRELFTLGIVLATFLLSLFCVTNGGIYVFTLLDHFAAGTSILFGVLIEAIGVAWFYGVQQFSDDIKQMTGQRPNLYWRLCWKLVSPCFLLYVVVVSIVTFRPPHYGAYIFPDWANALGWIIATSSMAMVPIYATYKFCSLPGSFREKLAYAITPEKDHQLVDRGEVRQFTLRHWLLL
5-hydroxytryptamine receptor 2A, sequence (P14842 whole entry): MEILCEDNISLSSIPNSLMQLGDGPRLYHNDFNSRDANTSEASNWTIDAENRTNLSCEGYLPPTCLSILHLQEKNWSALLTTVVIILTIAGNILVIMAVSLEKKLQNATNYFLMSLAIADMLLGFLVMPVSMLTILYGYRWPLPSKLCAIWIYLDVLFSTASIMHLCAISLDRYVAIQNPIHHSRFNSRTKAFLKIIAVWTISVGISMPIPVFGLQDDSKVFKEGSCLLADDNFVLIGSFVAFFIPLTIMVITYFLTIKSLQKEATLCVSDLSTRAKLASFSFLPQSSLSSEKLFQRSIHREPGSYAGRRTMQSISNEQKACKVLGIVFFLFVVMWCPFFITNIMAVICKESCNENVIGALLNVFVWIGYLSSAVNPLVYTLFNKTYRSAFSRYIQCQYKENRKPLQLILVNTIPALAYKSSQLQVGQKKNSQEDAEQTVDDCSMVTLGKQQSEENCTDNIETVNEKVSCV

Consider `CNC(Cc1ccc2c(c1)OCO2)Cc1ccc2c(c1)OCO2`, for which the half-maximal inhibitory concentration (IC50) in data set [1] amounted to 36.7 µM.
Consider `CNC(Cc1ccc2c(c1)OCO2)c1ccccc1C` (racemic), for which, in data set [1], the IC50 turned out to be 65 µM.
Turning to `CNC(Cc1ccc2c(c1)OCO2)c1cccc(C)c1` (racemic), in data set [1], the IC50 was 51 µM.
`CNC(Cc1ccc2c(c1)OCO2)c1ccc(C)cc1` (racemic): the IC50 in data set [1] came to 42 µM.
For `CNC(Cc1ccc2c(c1)OCO2)c1ccccc1OC` (racemic), in [1], the half-maximal inhibitory concentration (IC50) was 92 µM.
Regarding `CNC(Cc1ccc2c(c1)OCO2)c1cccc(OC)c1` (racemic), the IC50 in [1] was determined as 80 µM.
The same measure, in the same setting: for `CNC(Cc1ccc2c(c1)OCO2)c1ccc(OC)cc1` (racemic) the value was 69 µM; for `CNC(Cc1ccc2c(c1)OCO2)c1ccc(F)cc1` (racemic), 63 µM; for `CNC(Cc1ccc2c(c1)OCO2)C1CCCCC1` (racemic), 81 µM.
Take `CNC(Cc1ccccc1)Cc1ccc2c(c1)OCO2` (racemic): in data set [1], the IC50 stood at 69 µM.
For the molecule `CNC(Cc1ccc2c(c1)OCO2)c1cccc2ccccc12.Cl` (racemic), the IC50 in [1] came to 12.6 µM. In addition, the Activity entry with SH-SY5Y is “Non-toxic”. Moreover, the “Ratio IC50” value in data set [2] amounted to 100.
In the case of `CNC(Cc1ccc2c(c1)OCO2)c1ccc2ccccc2c1.Cl` (racemic), in [1], the IC50 turned out to be 6.6 µM. For the same molecule, in the data set with SH-SY5Y, the Activity entry is “Non-toxic”. Besides, the “Ratio IC50” value in [2] came out at 100.
As to `CNC(Cc1ccc2c(c1)OCO2)c1ccc(-c2ccccc2)cc1` (racemic), in data set [1], the IC50 came out at 6 µM.
Turning to `CCC(Cc1ccc2c(c1)OCO2)NC` (racemic), the IC50 in data set [1] is 707 µM.
On to `CCCC(Cc1ccc2c(c1)OCO2)NC` (racemic), for which the IC50 in data set [1] worked out at 379 µM.
The same measure, in the same setting: for `CNC(Cc1ccc2c(c1)OCO2)C1CC1` (racemic) the value was 801 µM; for `CNC(Cc1ccc2c(c1)OCO2)C(C)C` (racemic), 651 µM.
On the same count and under the same terms, for `CNC(Cc1ccc2c(c1)OCO2)C(C)(C)C` (racemic) the value was 447 µM.
Turning to `CNC(Cc1ccc2c(c1)OCO2)c1ccccc1.Cl` (racemic), the IC50 in data set [1] was found to be 76 µM. The Ki in data set [3] is above 10 µM; in [4], 1.23 µM; in data set [5], above 10 µM; in data set [6], 1.32 µM; on Transporter it was 0.7 µM; on Serotonin 1B/1D receptor, above 10 µM. The same molecule showed a Ki in data set [8] above 10 µM. In addition, the Activity result in the data set with SH-SY5Y is recorded as “Toxic”; in the data set with Rattus norvegicus [7], “Non-toxic”. Also, the “Ratio IC50” value in data set [2] is 7.
With `CNC(C)Cc1ccc2c(c1)OCO2.Cl` (centres undefined) [MIDOMAFETAMINE HYDROCHLORIDE], the IC50 in data set [1] is 507 µM. The Ki in [3] was above 10 µM; in [4], above 10 µM; in [5], above 10 µM; in data set [6], 0.21 µM; at Transporter, above 10 µM; on Serotonin 1B/1D receptor it was above 10 µM. Moreover, the Ki in data set [8] was above 10 µM. Further, the Activity entry with SH-SY5Y is on record as “Toxic”; in the data set filed under Rattus norvegicus [9], “Dose-dependent effect”.
In the case of `COc1ccc(CC(C)N)cc1` (centres undefined) [PARA-METHOXYAMPHETAMINE], the Activity result in the data set filed under Rattus norvegicus [9] is on record as “Dose-dependent effect”.
